According to patent US9828413B2, “Vancomycin derivative, and preparation method and application thereof” (ACESYS PHARMA INC., priority 2013, dated 2017):
Converted amounts (≈) assume the structure as drawn.

Experiments:
[1] = physchem; details: 25 °C, water, thermodynamic from solid
[2] = system: Staphylococcus aureus Newman; test: In vitro activity assay, minimum inhibitory concentration (MIC), cup-plate method; type: cell-based; details: strain Newman, trypticase soy broth, read-out: MIC values, Staphylococcus aureus Newman
Protocol: (§1) In vitro activity assay was performed according to Microbiological Identification of Antibiotics, Appendix XIA, Volume II, Chinese Pharmacopoeia 2010. Vancomycin-sensitive Staphylococcus aureus strains (Newman and Mu 50) were selected as the test strains, and trypticase soy broth was selected as the culture medium.

[3] = system: Staphylococcus aureus Mu50; test: as above; type: cell-based; details: strain Mu50, trypticase soy broth, read-out: MIC values, Staphylococcus aureus Mu50
Protocol: as §1

Row | Structure (SMILES) | solubility at 30 min [1] [µg/mL] | MIC [2] [µg/mL] | MIC [3] [µg/mL]
1 | CN[C@H](CC(C)C)C(=O)NC1C(=O)N[C@@H](CC(N)=O)C(=O)N[C@H]2C(=O)NC3C(=O)N[C@H](C(=O)N[C@@H](C(=O)O)c4cc(O)cc(O)c4-c4cc3ccc4O)[C@H](O)c3ccc(c(Cl)c3)Oc3cc2cc(c3OC2OC(CO)C(O)C(O)C2OC2CC(C)(NCC(OCc3ccccc3)C(=O)O)C(O)C(C)O2)Oc2ccc(cc2Cl)[C@H]1O (stereo partly drawn) [Compound V11] | 50000 to 60000 (≈ 30700 to 36900 µM) | 8 (≈ 4.92 µM) | 32 (≈ 19.7 µM)
2 | CN[C@H](CC(C)C)C(=O)N[C@@H]1C(=O)NC(CC(N)=O)C(=O)NC2C(=O)NC3C(=O)N[C@H](C(=O)NC(C(=O)O)c4cc(O)cc(O)c4-c4cc3ccc4O)[C@H](O)c3ccc(c(Cl)c3)Oc3cc2cc(c3OC2OC(CO)C(O)C(O)C2OC2CC(C)(NCC(OCc3ccc(-c4ccc(Cl)cc4)cc3)C(=O)OC)C(O)C(C)O2)Oc2ccc(cc2Cl)C1O (stereo partly drawn) [Compound V13] | 50000 to 60000 (≈ 28500 to 34200 µM) | < 0.125 | 2 (≈ 1.14 µM)
3 | CN[C@H](CC(C)C)C(=O)NC1C(=O)N[C@@H](CC(N)=O)C(=O)N[C@H]2C(=O)NC3C(=O)N[C@H](C(=O)N[C@@H](C(=O)O)c4cc(O)cc(O)c4-c4cc3ccc4O)[C@H](O)c3ccc(c(Cl)c3)Oc3cc2cc(c3OC2OC(CO)C(O)C(O)C2OC2CC(C)(NCC(OCc3ccc(-c4ccc(Cl)cc4)cc3)C(=O)O)C(O)C(C)O2)Oc2ccc(cc2Cl)[C@H]1O (stereo partly drawn) [Compound V15] | ≥ 60000 | < 0.125 | 2 (≈ 1.15 µM)
4 | CN[C@H](CC(C)C)C(=O)N[C@@H]1C(=O)NC(CC(N)=O)C(=O)NC2C(=O)NC3C(=O)N[C@H](C(=O)NC(C(=O)O)c4cc(O)cc(O)c4-c4cc3ccc4O)[C@H](O)c3ccc(c(Cl)c3)Oc3cc2cc(c3OC2OC(CO)C(O)C(O)C2OC2CC(C)(NCC(OCc3ccc(Cl)cc3)C(=O)OC)C(O)C(C)O2)Oc2ccc(cc2Cl)C1O (stereo partly drawn) [Compound V20] | < 5000 | < 0.125 | 2 (≈ 1.19 µM)
5 | CN[C@H](CC(C)C)C(=O)N[C@@H]1C(=O)NC(CC(N)=O)C(=O)NC2C(=O)NC3C(=O)N[C@H](C(=O)NC(C(=O)O)c4cc(O)cc(O)c4-c4cc3ccc4O)[C@H](O)c3ccc(c(Cl)c3)Oc3cc2cc(c3OC2OC(CO)C(O)C(O)C2OC2CC(C)(NCC(OCc3ccc(Cl)cc3)C(=O)O)C(O)C(C)O2)Oc2ccc(cc2Cl)C1O (stereo partly drawn) [Compound V21] | > 8000 | < 0.125 | 2 (≈ 1.2 µM)
6 | CN[C@H](CC(C)C)C(=O)NC1C(=O)N[C@@H](CC(N)=O)C(=O)N[C@H]2C(=O)NC3C(=O)N[C@H](C(=O)N[C@@H](C(=O)O)c4cc(O)cc(O)c4-c4cc3ccc4O)[C@H](O)c3ccc(c(Cl)c3)Oc3cc2cc(c3OC2OC(CO)C(O)C(O)C2OC2CC(C)(NCC(OCc3ccc(-c4ccccc4)cc3)C(=O)O)C(O)C(C)O2)Oc2ccc(cc2Cl)[C@H]1O (stereo partly drawn) [Compound V24] | > 10000 | 4 (≈ 2.35 µM) | 8 (≈ 4.7 µM)
7 | CN[C@H](CC(C)C)C(=O)N[C@@H]1C(=O)NC(CC(N)=O)C(=O)NC2C(=O)NC3C(=O)N[C@H](C(=O)NC(C(=O)O)c4cc(O)cc(O)c4-c4cc3ccc4O)[C@H](O)c3ccc(c(Cl)c3)Oc3cc2cc(c3OC2OC(CO)C(O)C(O)C2OC2CC(C)(NCC(OC)C(=O)OC)C(O)C(C)O2)Oc2ccc(cc2Cl)C1O (stereo partly drawn) [Compound V26] | 4500 (≈ 2870 µM) | 16 (≈ 10.2 µM) | 64 (≈ 40.9 µM)
8 | CCCOC(CNC1(C)CC(OC2C(Oc3c4cc5cc3Oc3ccc(cc3Cl)[C@@H](O)[C@@H]3NC(=O)C(NC(=O)[C@@H]5NC(=O)[C@H](CC(N)=O)NC(=O)C(NC(=O)[C@@H](CC(C)C)NC)[C@H](O)c5ccc(c(Cl)c5)O4)c4ccc(O)c(c4)-c4c(O)cc(O)cc4[C@H](C(=O)O)NC3=O)OC(CO)C(O)C2O)OC(C)C1O)C(=O)O (stereo partly drawn) [Compound V30] | 4000 (≈ 2530 µM) | 4 (≈ 2.53 µM) | 16 (≈ 10.1 µM)

Results, then the molecule that gave them:

Row | solubility at 30 min [1] [µg/mL] | MIC [2] [µg/mL] | MIC [3] [µg/mL] | Structure (SMILES)
9 | < 100 | 8 (≈ 4.87 µM) | 32 (≈ 19.5 µM) | CN[C@H](CC(C)C)C(=O)NC1C(=O)N[C@@H](CC(N)=O)C(=O)N[C@H]2C(=O)NC3C(=O)N[C@H](C(=O)N[C@@H](C(=O)O)c4cc(O)cc(O)c4-c4cc3ccc4O)[C@H](O)c3ccc(c(Cl)c3)Oc3cc2cc(c3OC2OC(CO)C(O)C(O)C2OC2CC(C)(NCC(OCc3ccccc3)C(=O)OC)C(O)C(C)O2)Oc2ccc(cc2Cl)[C@H]1O (stereo partly drawn) [Compound V9]
10 | ≥ 60000 | 16 (≈ 9.95 µM) | 64 (≈ 39.8 µM) | CCCCOC(CNC1(C)CC(OC2C(Oc3c4cc5cc3Oc3ccc(cc3Cl)[C@@H](O)[C@@H]3NC(=O)C(NC(=O)C5NC(=O)C(CC(N)=O)NC(=O)[C@@H](NC(=O)[C@@H](CC(C)C)NC)C(O)c5ccc(c(Cl)c5)O4)c4ccc(O)c(c4)-c4c(O)cc(O)cc4C(C(=O)O)NC3=O)OC(CO)C(O)C2O)OC(C)C1O)C(=O)OC (stereo partly drawn) [Compound V16]
11 | 50000 to 60000 (≈ 31400 to 37700 µM) | 64 (≈ 40.2 µM) | > 128 | CCCCOC(CNC1(C)CC(OC2C(Oc3c4cc5cc3Oc3ccc(cc3Cl)[C@@H](O)[C@@H]3NC(=O)C(NC(=O)[C@@H]5NC(=O)[C@H](CC(N)=O)NC(=O)C(NC(=O)[C@@H](CC(C)C)NC)[C@H](O)c5ccc(c(Cl)c5)O4)c4ccc(O)c(c4)-c4c(O)cc(O)cc4[C@H](C(=O)O)NC3=O)OC(CO)C(O)C2O)OC(C)C1O)C(=O)O (stereo partly drawn) [Compound V19]
12 | < 5000 | 2 (≈ 1.21 µM) | 8 (≈ 4.83 µM) | CN[C@H](CC(C)C)C(=O)N[C@@H]1C(=O)NC(CC(N)=O)C(=O)NC2C(=O)NC3C(=O)N[C@H](C(=O)NC(C(=O)O)c4cc(O)cc(O)c4-c4cc3ccc4O)[C@H](O)c3ccc(c(Cl)c3)Oc3cc2cc(c3OC2OC(CO)C(O)C(O)C2OC2CC(C)(NCC(OCc3ccc(C)cc3)C(=O)OC)C(O)C(C)O2)Oc2ccc(cc2Cl)C1O (stereo partly drawn) [Compound V22]
13 | > 8000 | 2 (≈ 1.22 µM) | 8 (≈ 4.87 µM) | CN[C@H](CC(C)C)C(=O)NC1C(=O)N[C@@H](CC(N)=O)C(=O)N[C@H]2C(=O)NC3C(=O)N[C@H](C(=O)N[C@@H](C(=O)O)c4cc(O)cc(O)c4-c4cc3ccc4O)[C@H](O)c3ccc(c(Cl)c3)Oc3cc2cc(c3OC2OC(CO)C(O)C(O)C2OC2CC(C)(NCC(OCc3ccc(C)cc3)C(=O)O)C(O)C(C)O2)Oc2ccc(cc2Cl)[C@H]1O (stereo partly drawn) [Compound V23]
14 | < 5000 | 4 (≈ 2.33 µM) | 8 (≈ 4.66 µM) | CN[C@H](CC(C)C)C(=O)N[C@@H]1C(=O)NC(CC(N)=O)C(=O)NC2C(=O)NC3C(=O)N[C@H](C(=O)NC(C(=O)O)c4cc(O)cc(O)c4-c4cc3ccc4O)[C@H](O)c3ccc(c(Cl)c3)Oc3cc2cc(c3OC2OC(CO)C(O)C(O)C2OC2CC(C)(NCC(OCc3ccc(-c4ccccc4)cc3)C(=O)OC)C(O)C(C)O2)Oc2ccc(cc2Cl)C1O (stereo partly drawn) [Compound V25]
15 | 20000 (≈ 12900 µM) | 16 (≈ 10.3 µM) | 64 (≈ 41.3 µM) | CN[C@H](CC(C)C)C(=O)NC1C(=O)N[C@@H](CC(N)=O)C(=O)N[C@H]2C(=O)NC3C(=O)N[C@H](C(=O)N[C@@H](C(=O)O)c4cc(O)cc(O)c4-c4cc3ccc4O)[C@H](O)c3ccc(c(Cl)c3)Oc3cc2cc(c3OC2OC(CO)C(O)C(O)C2OC2CC(C)(NCC(OC)C(=O)O)C(O)C(C)O2)Oc2ccc(cc2Cl)[C@H]1O (stereo partly drawn) [Compound V27]
16 | < 1000 | 2 (≈ 1.22 µM) | 8 (≈ 4.89 µM) | CCCCCCOC(CNC1(C)CC(OC2C(Oc3c4cc5cc3Oc3ccc(cc3Cl)[C@@H](O)[C@@H]3NC(=O)C(NC(=O)C5NC(=O)C(CC(N)=O)NC(=O)[C@@H](NC(=O)[C@@H](CC(C)C)NC)C(O)c5ccc(c(Cl)c5)O4)c4ccc(O)c(c4)-c4c(O)cc(O)cc4C(C(=O)O)NC3=O)OC(CO)C(O)C2O)OC(C)C1O)C(=O)OC (stereo partly drawn) [Compound V31]
